This is an account of results in ChEMBL document CHEMBL5376027, “Discovery of 5-trifluoromethyl-2-aminopyrimidine derivatives as potent dual inhibitors of FLT3 and CHK1” (RSC Med Chem, 2024).

Data set [1] concerns the target T1, Serine/threonine-protein kinase Chk1 (Homo sapiens, UniProt O14757).
T1 sequence (O14757 whole entry): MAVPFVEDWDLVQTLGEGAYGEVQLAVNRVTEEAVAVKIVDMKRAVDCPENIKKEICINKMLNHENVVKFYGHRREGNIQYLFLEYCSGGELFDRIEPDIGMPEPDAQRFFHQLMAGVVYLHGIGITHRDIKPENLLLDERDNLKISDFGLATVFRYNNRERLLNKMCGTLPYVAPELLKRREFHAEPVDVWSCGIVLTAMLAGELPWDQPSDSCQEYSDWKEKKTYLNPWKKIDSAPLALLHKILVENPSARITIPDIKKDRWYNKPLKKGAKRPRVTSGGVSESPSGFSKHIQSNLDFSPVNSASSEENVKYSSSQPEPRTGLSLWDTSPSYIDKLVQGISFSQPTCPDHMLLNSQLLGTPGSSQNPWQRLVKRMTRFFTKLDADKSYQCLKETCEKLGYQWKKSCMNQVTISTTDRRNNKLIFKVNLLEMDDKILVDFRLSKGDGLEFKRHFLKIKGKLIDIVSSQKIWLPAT
Description: Inhibition of CHK1 (unknown origin) using peptide substrate incubated for 1 hrs in presence of ATP by fluorescence microplate reader analysis

Data set [2] has as its target Ribosomal protein S6 kinase. The data set is described as follows: Inhibition of p70S6K (unknown origin) using peptide substrate incubated for 1 hrs in presence of ATP by fluorescence microplate reader. In kind it is protein assay, Homo sapiens.
The target in data set [3] is Serine/threonine-protein kinase pim-1 (Homo sapiens, UniProt P11309). The data set is described as follows: Inhibition of PIM1 (unknown origin) using peptide substrate incubated for 1 hrs in presence of ATP by fluorescence microplate reader.
A further data set deals with hERG (KCNH2) (Homo sapiens, UniProt Q12809). As to the kind of experiment: Inhibition of hERG expressed in HEK293 cells at 10 uM incubated by patch clamp assay relative to control. In kind it is toxicity, cell-based. Particulars: HEK293 cells that express hERG. On the technique in general: The hERG channel carries a current that helps repolarise heart muscle cells.
Data set [4] deals with Mast/stem cell growth factor receptor Kit (Homo sapiens, UniProt P10721).
Description: Inhibition of c-kit (unknown origin) using peptide substrate incubated for 1 hrs in presence of ATP by fluorescence microplate reader analysis
For data set [5], the target named is Epidermal growth factor receptor (Homo sapiens, UniProt P00533). As to the kind of experiment: Inhibition of EGFR (unknown origin) using peptide substrate incubated for 1 hrs in presence of ATP by fluorescence microplate reader.
In data set [6] the target is Tyrosine-protein kinase BTK (Homo sapiens, UniProt Q06187). As to the kind of experiment: Inhibition of BTK (unknown origin) using peptide substrate incubated for 1 hrs in presence of ATP by fluorescence microplate reader.
The target in data set [7] is T2, Interleukin-1 receptor-associated kinase 4 (Homo sapiens, UniProt Q9NWZ3).
T2 sequence (Q9NWZ3 whole entry): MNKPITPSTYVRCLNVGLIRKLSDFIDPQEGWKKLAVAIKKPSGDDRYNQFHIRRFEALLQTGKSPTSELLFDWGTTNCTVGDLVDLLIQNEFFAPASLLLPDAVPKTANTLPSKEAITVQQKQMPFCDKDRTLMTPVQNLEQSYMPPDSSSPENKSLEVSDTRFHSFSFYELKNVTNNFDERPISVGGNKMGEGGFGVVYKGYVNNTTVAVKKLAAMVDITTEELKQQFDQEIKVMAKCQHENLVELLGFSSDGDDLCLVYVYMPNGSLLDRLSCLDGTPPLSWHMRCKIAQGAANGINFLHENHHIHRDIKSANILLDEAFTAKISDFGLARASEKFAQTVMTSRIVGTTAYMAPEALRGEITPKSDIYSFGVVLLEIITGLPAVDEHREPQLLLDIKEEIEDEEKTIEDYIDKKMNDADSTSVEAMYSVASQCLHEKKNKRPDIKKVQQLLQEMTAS
The data set is described as follows: Inhibition of IRAK4 (unknown origin) using peptide substrate incubated for 1 hrs in presence of ATP by fluorescence microplate reader.

The target in data set [8] is T3, Serine/threonine-protein kinase Chk1 (Homo sapiens) (UniProt O14757).
T3 sequence (whole entry): T1 sequence (O14757 whole entry)
Particulars: MV4-11, dose 50-200 nM.
Description: Inhibition of CHK1 in human MV4-11 cells assessed as decrease in c-Myc protein expression level at 50 to 200 nM by Western blot analysis

The target of data set [9] is T3, Serine/threonine-protein kinase Chk1 (Homo sapiens). Particulars: MV4-11, dose 50-200 nM. This is another data set of the same source.
Description: Inhibition of CHK1 phosphorylation at S296 residue in human MV4-11 cells at 50 to 200 nM by Western blot analysis
Data set [10] has as its target T4, Tyrosine-protein kinase JAK3 (Homo sapiens, UniProt P52333).
T4 sequence (P52333 whole entry): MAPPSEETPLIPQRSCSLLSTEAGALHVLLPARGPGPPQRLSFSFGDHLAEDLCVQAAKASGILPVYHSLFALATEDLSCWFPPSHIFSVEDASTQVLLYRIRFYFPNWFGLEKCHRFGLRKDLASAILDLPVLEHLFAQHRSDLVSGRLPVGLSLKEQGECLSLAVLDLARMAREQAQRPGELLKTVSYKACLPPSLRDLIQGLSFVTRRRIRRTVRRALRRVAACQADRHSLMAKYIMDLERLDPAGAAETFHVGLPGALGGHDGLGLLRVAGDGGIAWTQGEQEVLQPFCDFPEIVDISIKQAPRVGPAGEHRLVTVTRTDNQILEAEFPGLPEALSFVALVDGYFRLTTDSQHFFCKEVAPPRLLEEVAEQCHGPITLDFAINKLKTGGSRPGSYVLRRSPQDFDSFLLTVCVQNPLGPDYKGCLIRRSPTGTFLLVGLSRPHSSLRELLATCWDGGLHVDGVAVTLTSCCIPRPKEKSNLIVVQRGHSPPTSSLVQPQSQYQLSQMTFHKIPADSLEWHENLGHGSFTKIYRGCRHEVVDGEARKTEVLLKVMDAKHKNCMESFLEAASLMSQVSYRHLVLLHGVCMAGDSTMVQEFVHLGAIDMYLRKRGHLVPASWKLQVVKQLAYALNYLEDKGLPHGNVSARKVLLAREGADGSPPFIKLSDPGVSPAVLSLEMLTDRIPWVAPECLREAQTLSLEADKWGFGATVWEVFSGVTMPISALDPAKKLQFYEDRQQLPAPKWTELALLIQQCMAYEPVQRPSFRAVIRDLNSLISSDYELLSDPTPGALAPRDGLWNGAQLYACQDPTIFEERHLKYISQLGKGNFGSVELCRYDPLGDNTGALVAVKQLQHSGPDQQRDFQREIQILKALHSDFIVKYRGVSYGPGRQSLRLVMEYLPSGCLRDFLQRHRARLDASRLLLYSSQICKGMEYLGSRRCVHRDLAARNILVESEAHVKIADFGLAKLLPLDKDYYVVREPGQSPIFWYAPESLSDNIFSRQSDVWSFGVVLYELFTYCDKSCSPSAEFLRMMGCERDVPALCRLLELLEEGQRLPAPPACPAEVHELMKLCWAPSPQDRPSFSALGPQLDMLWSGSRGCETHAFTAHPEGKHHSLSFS
As to the kind of experiment: Inhibition of JAK3 (unknown origin) using peptide substrate incubated for 1 hrs in presence of ATP by fluorescence microplate reader.

The target in data set [11] is T5, Serine/threonine-protein kinase 17B (Homo sapiens, UniProt O94768).
T5 sequence (O94768 whole entry): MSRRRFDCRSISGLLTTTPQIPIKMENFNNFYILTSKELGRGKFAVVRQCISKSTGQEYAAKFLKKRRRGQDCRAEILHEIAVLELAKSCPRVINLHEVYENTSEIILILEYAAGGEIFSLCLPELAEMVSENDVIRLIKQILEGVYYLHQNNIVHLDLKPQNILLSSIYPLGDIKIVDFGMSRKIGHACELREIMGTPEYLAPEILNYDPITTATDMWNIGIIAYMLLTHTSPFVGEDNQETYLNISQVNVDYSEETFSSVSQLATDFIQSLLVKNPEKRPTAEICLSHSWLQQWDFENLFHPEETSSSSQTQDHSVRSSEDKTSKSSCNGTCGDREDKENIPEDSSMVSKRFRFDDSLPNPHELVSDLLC
As to the kind of experiment: Inhibition of DRAK2 (unknown origin) expressed in Escherichia coli incubated for 2 hrs by ADP-Glo assay. A general note: In ADP-Glo the light output rises with the ADP produced.

The target of the next data set is T6, Aurora kinase A (Homo sapiens, UniProt O14965).
T6 sequence (O14965 whole entry): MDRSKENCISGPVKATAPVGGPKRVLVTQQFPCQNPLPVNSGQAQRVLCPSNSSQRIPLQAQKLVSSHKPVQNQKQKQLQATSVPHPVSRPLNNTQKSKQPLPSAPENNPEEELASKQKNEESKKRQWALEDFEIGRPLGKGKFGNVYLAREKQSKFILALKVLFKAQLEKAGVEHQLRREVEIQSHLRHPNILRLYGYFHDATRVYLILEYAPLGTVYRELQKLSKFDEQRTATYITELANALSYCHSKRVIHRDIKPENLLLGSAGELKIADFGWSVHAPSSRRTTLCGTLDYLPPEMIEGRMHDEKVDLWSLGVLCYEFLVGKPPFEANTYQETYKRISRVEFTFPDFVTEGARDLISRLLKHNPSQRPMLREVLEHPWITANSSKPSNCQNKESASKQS
As to the kind of experiment: Inhibition of Aurora A (unknown origin) expressed in Escherichia coli using peptide substrate incubated for 1 hrs in presence of ATP by fluorescence microplate reader.

Data set [12] deals with Cyclin-dependent kinase 2 (Homo sapiens, UniProt P24941). As to the kind of experiment: Inhibition of CDK2 (unknown origin) incubated for 1 hrs by fluorescence microplate reader.

The source made the active and inactive calls. The rule behind the calls is not given here. Some results are limits rather than exact numbers.

Sequence of hERG (KCNH2) (Q12809 whole entry): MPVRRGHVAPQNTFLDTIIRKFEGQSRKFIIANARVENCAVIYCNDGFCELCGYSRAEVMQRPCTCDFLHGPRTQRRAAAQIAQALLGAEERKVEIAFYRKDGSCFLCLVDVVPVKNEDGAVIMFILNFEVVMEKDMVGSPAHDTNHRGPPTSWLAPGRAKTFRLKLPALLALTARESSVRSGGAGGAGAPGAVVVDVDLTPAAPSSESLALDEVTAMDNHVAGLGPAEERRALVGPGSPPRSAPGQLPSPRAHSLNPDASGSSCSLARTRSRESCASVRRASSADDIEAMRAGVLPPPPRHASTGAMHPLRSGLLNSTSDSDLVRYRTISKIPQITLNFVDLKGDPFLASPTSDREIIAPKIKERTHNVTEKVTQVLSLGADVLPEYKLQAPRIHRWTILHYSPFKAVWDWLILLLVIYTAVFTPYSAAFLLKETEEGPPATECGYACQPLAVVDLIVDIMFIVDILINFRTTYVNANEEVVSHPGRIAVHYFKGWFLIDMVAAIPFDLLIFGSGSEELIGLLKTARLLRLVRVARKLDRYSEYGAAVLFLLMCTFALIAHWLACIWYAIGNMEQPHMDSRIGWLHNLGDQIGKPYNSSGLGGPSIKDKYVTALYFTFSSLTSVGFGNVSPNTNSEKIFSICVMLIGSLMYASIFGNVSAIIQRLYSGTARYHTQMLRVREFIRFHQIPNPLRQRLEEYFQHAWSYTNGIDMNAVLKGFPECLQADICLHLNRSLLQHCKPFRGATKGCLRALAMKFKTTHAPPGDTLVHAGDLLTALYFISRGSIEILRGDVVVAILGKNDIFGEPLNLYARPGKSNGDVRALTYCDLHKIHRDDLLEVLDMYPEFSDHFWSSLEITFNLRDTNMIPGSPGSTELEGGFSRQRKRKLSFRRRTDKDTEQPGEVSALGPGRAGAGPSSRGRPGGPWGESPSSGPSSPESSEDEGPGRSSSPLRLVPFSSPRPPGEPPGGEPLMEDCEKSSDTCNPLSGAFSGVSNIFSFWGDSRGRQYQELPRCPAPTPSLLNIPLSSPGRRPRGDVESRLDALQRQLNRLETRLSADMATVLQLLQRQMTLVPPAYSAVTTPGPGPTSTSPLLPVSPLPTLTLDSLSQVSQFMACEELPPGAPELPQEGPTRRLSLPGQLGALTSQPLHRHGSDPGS
Sequence of Mast/stem cell growth factor receptor Kit (P10721 whole entry): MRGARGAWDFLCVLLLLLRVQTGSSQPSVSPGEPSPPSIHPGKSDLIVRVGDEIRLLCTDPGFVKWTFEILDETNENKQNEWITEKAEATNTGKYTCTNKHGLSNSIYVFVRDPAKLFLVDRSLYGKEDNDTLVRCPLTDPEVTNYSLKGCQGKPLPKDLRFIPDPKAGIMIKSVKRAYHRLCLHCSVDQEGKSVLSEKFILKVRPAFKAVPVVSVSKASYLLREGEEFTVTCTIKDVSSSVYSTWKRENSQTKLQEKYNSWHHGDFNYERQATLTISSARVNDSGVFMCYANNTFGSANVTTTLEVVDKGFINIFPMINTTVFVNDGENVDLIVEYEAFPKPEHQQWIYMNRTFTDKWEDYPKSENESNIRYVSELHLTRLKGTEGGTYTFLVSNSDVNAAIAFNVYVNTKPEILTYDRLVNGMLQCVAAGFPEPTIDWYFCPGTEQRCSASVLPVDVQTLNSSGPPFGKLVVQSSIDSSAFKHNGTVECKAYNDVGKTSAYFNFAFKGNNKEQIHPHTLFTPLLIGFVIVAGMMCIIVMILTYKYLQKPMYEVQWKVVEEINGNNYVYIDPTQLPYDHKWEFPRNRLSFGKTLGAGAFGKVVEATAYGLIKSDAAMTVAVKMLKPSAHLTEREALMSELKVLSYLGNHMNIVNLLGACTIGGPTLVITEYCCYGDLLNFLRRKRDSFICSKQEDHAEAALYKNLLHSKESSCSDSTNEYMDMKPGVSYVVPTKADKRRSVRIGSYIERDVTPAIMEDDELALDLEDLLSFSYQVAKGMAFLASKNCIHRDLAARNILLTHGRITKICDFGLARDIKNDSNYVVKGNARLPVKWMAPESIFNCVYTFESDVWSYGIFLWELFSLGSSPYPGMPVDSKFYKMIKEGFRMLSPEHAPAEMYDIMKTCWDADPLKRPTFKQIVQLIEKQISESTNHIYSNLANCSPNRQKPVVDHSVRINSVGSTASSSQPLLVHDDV
Sequence of Serine/threonine-protein kinase pim-1 (P11309 whole entry): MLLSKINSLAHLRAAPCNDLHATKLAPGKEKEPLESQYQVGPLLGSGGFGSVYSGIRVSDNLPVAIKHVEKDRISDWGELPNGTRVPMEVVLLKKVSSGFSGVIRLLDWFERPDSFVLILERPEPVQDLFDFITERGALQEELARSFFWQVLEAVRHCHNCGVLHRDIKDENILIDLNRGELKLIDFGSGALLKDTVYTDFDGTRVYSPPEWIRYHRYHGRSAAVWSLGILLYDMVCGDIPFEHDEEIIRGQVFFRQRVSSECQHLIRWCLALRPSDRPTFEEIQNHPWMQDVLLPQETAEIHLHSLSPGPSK
Sequence of Epidermal growth factor receptor (P00533 whole entry): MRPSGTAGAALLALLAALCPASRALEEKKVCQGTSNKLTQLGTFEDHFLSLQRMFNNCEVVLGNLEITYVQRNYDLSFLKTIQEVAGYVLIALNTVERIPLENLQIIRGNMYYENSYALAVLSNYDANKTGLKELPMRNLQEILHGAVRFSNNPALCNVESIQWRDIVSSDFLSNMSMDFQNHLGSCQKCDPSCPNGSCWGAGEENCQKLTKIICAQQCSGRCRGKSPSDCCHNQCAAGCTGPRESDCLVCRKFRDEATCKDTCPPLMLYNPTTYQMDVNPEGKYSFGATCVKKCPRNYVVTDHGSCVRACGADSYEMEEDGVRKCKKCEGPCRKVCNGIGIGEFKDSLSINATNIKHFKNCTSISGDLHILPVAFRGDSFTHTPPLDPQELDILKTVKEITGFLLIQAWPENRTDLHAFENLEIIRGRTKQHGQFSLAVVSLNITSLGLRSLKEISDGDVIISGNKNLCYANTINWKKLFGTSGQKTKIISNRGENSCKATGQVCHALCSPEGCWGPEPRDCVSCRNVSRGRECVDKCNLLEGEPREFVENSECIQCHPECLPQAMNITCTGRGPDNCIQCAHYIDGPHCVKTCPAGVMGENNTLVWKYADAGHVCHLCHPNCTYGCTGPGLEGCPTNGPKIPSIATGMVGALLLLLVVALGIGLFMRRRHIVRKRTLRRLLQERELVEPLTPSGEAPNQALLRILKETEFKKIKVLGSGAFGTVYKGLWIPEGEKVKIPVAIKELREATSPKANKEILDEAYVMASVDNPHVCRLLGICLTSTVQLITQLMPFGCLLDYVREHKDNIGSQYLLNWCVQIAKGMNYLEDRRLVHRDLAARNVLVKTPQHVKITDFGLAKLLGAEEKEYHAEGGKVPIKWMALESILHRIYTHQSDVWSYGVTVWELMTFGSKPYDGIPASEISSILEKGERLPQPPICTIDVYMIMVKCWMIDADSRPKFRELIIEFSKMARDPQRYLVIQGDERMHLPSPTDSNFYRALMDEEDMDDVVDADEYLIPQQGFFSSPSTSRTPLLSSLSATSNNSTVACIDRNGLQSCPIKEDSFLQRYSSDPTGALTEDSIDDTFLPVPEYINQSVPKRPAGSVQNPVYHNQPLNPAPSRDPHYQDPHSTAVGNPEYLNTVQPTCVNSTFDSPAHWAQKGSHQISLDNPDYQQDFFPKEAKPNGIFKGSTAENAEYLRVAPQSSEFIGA
Sequence of Tyrosine-protein kinase BTK (Q06187 whole entry): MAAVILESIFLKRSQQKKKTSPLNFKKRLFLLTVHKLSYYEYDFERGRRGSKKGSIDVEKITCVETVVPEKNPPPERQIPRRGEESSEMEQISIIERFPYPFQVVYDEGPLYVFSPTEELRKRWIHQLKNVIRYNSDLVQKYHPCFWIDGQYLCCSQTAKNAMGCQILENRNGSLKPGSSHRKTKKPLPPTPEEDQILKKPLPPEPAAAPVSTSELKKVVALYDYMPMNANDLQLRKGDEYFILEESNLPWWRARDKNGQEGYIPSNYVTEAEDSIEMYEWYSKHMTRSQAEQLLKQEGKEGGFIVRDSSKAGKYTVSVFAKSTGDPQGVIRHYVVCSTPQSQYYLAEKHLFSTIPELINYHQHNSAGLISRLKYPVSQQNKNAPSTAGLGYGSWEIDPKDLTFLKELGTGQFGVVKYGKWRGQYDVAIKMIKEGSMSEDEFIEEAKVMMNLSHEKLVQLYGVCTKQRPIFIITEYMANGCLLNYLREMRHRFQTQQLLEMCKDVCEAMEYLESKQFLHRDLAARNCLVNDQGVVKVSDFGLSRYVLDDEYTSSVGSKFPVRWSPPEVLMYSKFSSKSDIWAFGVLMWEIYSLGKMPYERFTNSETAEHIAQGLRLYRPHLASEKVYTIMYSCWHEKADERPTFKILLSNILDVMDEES

Compound `NCCCNc1nc(Nc2ccc3c(c2)CCN(S(=O)(=O)C2CCCCC2)C3)ncc1C(F)(F)F` had a half-inhibitory concentration (IC50) in [1] of 100 nM.

Consider `CS(=O)(=O)N1CCc2cc(Nc3ncc(C(F)(F)F)c(NCCCN)n3)ccc2C1`, for which the IC50 is 834.85 nM in data set [2]; 25.6 nM in data set [1]; over 10000 nM in data set [3]; 10500 nM in [4]; over 10000 nM in data set [5]; over 10000 nM in data set [6]. The IC50 in data set [7] was 865 nM; in data set [10] it was over 10000 nM; in [11] it was over 10000 nM; on Aurora kinase A it was 1860 nM; in [12], 833 nM. Moreover, at hERG (KCNH2), 10 µM produced 36.1% inhibition. The inhibition entry in data set [8] and in [9] was “Active” each time.

For `CS(=O)(=O)N1CCOc2cc(Nc3ncc(C(F)(F)F)c(NCCCN)n3)ccc21`, the IC50 in data set [1] amounted to 183 nM.

As to `CS(=O)(=O)N1Cc2ccc(Nc3ncc(C(F)(F)F)c(NCCCN)n3)cc2C1`, the IC50 stood at 35.2 nM in data set [1] and 21300 nM in data set [4]. On hERG (KCNH2), this compound showed an inhibition at 10 µM of 23.2%.

Regarding `NCCCNc1nc(Nc2ccc3c(c2)CCCC3=O)ncc1C(F)(F)F`, the IC50 worked out at 38.6 nM in data set [1] and 10900 nM in [4]. Besides, on hERG (KCNH2), the inhibition at 10 µM is 76.1%.

Compound `NCCCNc1nc(Nc2ccc3c(c2)COC3=O)ncc1C(F)(F)F` came in with a concentration for half-maximal inhibition (IC50) in [1] of 93.6 nM.

Take `CS(=O)(=O)N1CCCc2cc(Nc3ncc(C(F)(F)F)c(NCCCN)n3)ccc21`: the IC50 came to 28.9 nM in data set [1] and 9810 nM in data set [4]. Besides, 10 µM produced 64.2% inhibition against hERG (KCNH2).

In turn, `NCCCNc1nc(Nc2ccc3c(c2)CCC3=O)ncc1C(F)(F)F` registered an IC50 in data set [1] of 144 nM.

Regarding `NCCCNc1nc(Nc2ccc3c(c2)CCCN3S(=O)(=O)c2ccccc2)ncc1C(F)(F)F`, inhibition in [1] was half-maximal at 166 nM (IC50).

In data set [1], `CC(=O)c1ccc(Nc2ncc(C(F)(F)F)c(NCCCN)n2)cc1` yielded an IC50 of 89.3 nM.

As for `NCCCNc1nc(Nc2ccc3c(c2)CCS3(=O)=O)ncc1C(F)(F)F`, the midpoint of inhibition in data set [1], the IC50, lay at 104 nM.

As for `NCCCNc1nc(Nc2ccc3c(c2)CCN(S(=O)(=O)c2ccccc2)C3)ncc1C(F)(F)F`, in [1], it took 133 nM to reach half-maximal inhibition (IC50).

Take `CS(=O)(=O)N1CCc2cc(Nc3ncc(C(F)(F)F)c(NCCCN)n3)ccc21`: the figures for the IC50 in data set [1] and in [4] were 32.5 nM and 12300 nM, respectively. The inhibition at 10 µM at hERG (KCNH2) worked out at 39.5%.

`NCCCNc1nc(Nc2ccc3c(c2)OCO3)ncc1C(F)(F)F`: the IC50 in data set [1] amounted to 237 nM.

As usually defined, the IC50 is the midpoint of a concentration-inhibition curve. What is called inhibition is the drop in the measured response relative to a control, in per cent.
